Test system: Escherichia coli K12 NCTC 10538
Assay: Hygienic Handrub test BS EN 1500:2013 on human volunteers' hands
Format: in vivo
Procedure: The composition of Example 2 was tested for compliance with requirements for chemical disinfectants and antiseptics in accordance with European Standard BS EN 1500:2013 Chemical Disinfectants and Antiseptics—Hygienic Handrub—Test Method and Requirements. The test organism was Escherichia coli K12 NCTC 10538 which was obtained as a freeze dried ampoule and was reconstituted using Tryptone Soy Broth and incubated to achieve a concentration of 2×10^9 Cfu/mL. The reference standard was propan-2-ol 60% v/v solution in sterile water. There were no deviations from the standard test method.
Human volunteer's hands were washed for 1 minute with diluted soft soap (5 mL), rinsed in running water and dried with a paper towel for at least 30 seconds. The hands were immersed up to the mid-metacarpals for five seconds and the liquid was allowed to drain back into the container for a maximum of 30 seconds before allowing to air dry for three minutes.
The reference standard (3.0 mL) was applied and rubbed for 30 seconds. This was repeated with a second portion of reference standard (3.0 mL) and rubbing for a further 30 seconds. This procedure was repeated for 20 volunteers.
This protocol was repeated on 20 volunteers using the composition of Example 2.
The protocol of Example 16 was repeated for the composition of Example 4.

CC(C)O [reference standard, propan-2-ol]
Mean Log Reduction Factor (Example 16, 20 volunteers, 2 x 3.0 mL, rubbed 30 seconds each): 3.89 | Mean Log Reduction Factor (Example 17, protocol of Example 16 repeated): 3.90

From patent US11051516B2, “Antimicrobial sanitizer compositions and their use” (GFS CORPORATION AUS PTY LTD, priority 2014, dated 2021)
